Measured values as given in patent publication US7935853B2, “Micronized composition of a 2,4-disubstituted phenol derivative” (priority 2008, dated 2011).

Test system: arthritis induced by injection of type II collagen in the mouse
Assay: Model of arthritis induced by type II collagen in mice (CIA), hind paw plethysmometry
Format: in vivo
Settings: for Total hind paw volume (sum of both hind paws) / Oedema (difference in paw volume from basal values on day 21) in both hind paws: group mean n=10
Description: The aim of the study was to determine the anti-inflammatory activity of the test item in a model of arthritis induced by injection of type II collagen in the mouse (CIA) and to compare the activity of two different formulations: micronized and non-micronized.
Induction of arthritis was carried out by an initial exposure to type II bovine collagen by a subcutaneous injection at the base of the tail (induction phase).
After a recovery time of 21 days, animals received a booster injection and approximately 4-5 weeks after the first injection there was an immune response with arthritis appearing in the extremities in the majority of the cases.
Four experimental groups were used in the study with 10 animals in each group:
Group D: Positive control: FCA+vehicle B.I.D.
Group E: Micronized Test Item (Micro) 10 mg/kg B.I.D.
Group F: Non-Micronized test item 10 mg/kg B.I.D.
Group G: Reference item: Indomethacin 1 mg/kg Q.D.
The dose administered to groups E and F was 10 mg/kg.
The dose administered to group G was 1 mg/kg.
The doses of the test and reference items were expressed as mg/Kg of compound administered to each animal.
The test and reference items were administered in a solution of methylcellulose (0.25%: vehicle).
The positive control group received the vehicle (methylcellulose 0.25%).
The test and reference items, as well as the vehicle were administered orally at a dosing volume of 5 mls/kg.
The route of administration used was oral by use of an intragastric cannula.
On the day of start of the study each mouse was injected subcutaneously at the base of the tail with a first dose of 0.1 ml of an emulsion of bovine type II collagen (1 mg/mL) in Freund's Complete Adjuvant. Afterwards, on day 21 after this first injection, a second booster injection of type II collagen was administered to all animals. In this occasion the collagen suspension was done using Incomplete Freund's Adjuvant.
Coinciding with the second booster injection on day 21 treatment with the test or reference items was started to the corresponding animals.
Treatment with the test or reference items was carried out for 31 consecutive days (days 21-51 of the experimental period). Additionally, a recovery period was included at the end of the treatment period from day 52 to day 65 in order to evaluate the duration of any anti-inflammatory effect observed once dosing has been terminated.
The animals' hind paw volume was measured by plethysmometry one day before the 1st injection of collagen, again one day before the second (booster) collagen injection (basal values) and then daily after administration of test/reference item until the end of the study. During the recovery period at the end of the study, hind paw volume was measured three times per week.
Additionally the data was also represented graphically, depicting changes in total hind paw volume, as well as oedema (differences from basal (day 21) values).

[1] = day 22, oral treatment days 21-51, listed as Group F
[2] = day 23, oral treatment days 21-51, listed as Group F
[3] = day 26, oral treatment days 21-51, listed as Group F
[4] = day 27, oral treatment days 21-51, listed as Group F
[5] = day 29, oral treatment days 21-51, listed as Group F
[6] = day 30, oral treatment days 21-51, listed as Group F
[7] = day 33, oral treatment days 21-51, listed as Group F
[8] = day 34, oral treatment days 21-51, listed as Group F
[9] = day 35, oral treatment days 21-51, listed as Group F
[10] = day 36, oral treatment days 21-51, listed as Group F
[11] = day 37, oral treatment days 21-51, listed as Group F
[12] = day 41, oral treatment days 21-51, listed as Group F
[13] = day 42, oral treatment days 21-51, listed as Group F
[14] = day 43, oral treatment days 21-51, listed as Group F
[15] = day 44, oral treatment days 21-51, listed as Group F
[16] = day 47, oral treatment days 21-51, listed as Group F
[17] = day 48, oral treatment days 21-51, listed as Group F
[18] = day 49, oral treatment days 21-51, listed as Group F
[19] = day 50, oral treatment days 21-51, listed as Group F
[20] = day 51, oral treatment days 21-51, listed as Group F
[21] = day 54, recovery period after treatment days 21-51, listed as Group F
[22] = day 56, recovery period after treatment days 21-51, listed as Group F
[23] = day 58, recovery period after treatment days 21-51, listed as Group F
[24] = day 61, recovery period after treatment days 21-51, listed as Group F
[25] = day 63, recovery period after treatment days 21-51, listed as Group F
[26] = day 65, recovery period after treatment days 21-51, listed as Group F

SMILES: Oc1c(I)cc(I)cc1I [Non-Micronized, 2,4,6-triiodophenol]
- Total hind paw volume (sum of both hind paws) (day 0, before collagen and treatment, listed as Group F): 0.189
- Total hind paw volume (sum of both hind paws) (day 20, basal, before treatment, listed as Group F): 0.243
- Oedema (difference in paw volume from basal values on day 21) in both hind paws [1]: −0.003
- Total hind paw volume (sum of both hind paws) [1]: 0.240
- Oedema (difference in paw volume from basal values on day 21) in both hind paws [2]: 0.007
- Total hind paw volume (sum of both hind paws) [2]: 0.250
- Oedema (difference in paw volume from basal values on day 21) in both hind paws [3]: 0.010
- Total hind paw volume (sum of both hind paws) [3]: 0.253
- Oedema (difference in paw volume from basal values on day 21) in both hind paws [4]: −0.001
- Total hind paw volume (sum of both hind paws) [4]: 0.242
- Oedema (difference in paw volume from basal values on day 21) in both hind paws [5]: 0.006
- Total hind paw volume (sum of both hind paws) [5]: 0.248
- Oedema (difference in paw volume from basal values on day 21) in both hind paws [6]: 0.016
- Total hind paw volume (sum of both hind paws) [6]: 0.259
- Oedema (difference in paw volume from basal values on day 21) in both hind paws [7]: 0.007
- Total hind paw volume (sum of both hind paws) [7]: 0.250
- Oedema (difference in paw volume from basal values on day 21) in both hind paws [8]: 0.011
- Total hind paw volume (sum of both hind paws) [8]: 0.254
- Oedema (difference in paw volume from basal values on day 21) in both hind paws [9]: 0.013
- Total hind paw volume (sum of both hind paws) [9]: 0.255
- Oedema (difference in paw volume from basal values on day 21) in both hind paws [10]: 0.011
- Total hind paw volume (sum of both hind paws) [10]: 0.254
- Oedema (difference in paw volume from basal values on day 21) in both hind paws [11]: 0.000
- Total hind paw volume (sum of both hind paws) [11]: 0.243
- Total hind paw volume (sum of both hind paws) (day 40, oral treatment days 21-51): 0.273
- Oedema (difference in paw volume from basal values on day 21) in both hind paws (day 40, oral treatment days 21-51, listed as Group F): 0.030
- Oedema (difference in paw volume from basal values on day 21) in both hind paws [12]: 0.028
- Total hind paw volume (sum of both hind paws) [12]: 0.271
- Oedema (difference in paw volume from basal values on day 21) in both hind paws [13]: 0.021
- Total hind paw volume (sum of both hind paws) [13]: 0.264
- Oedema (difference in paw volume from basal values on day 21) in both hind paws [14]: 0.013
- Total hind paw volume (sum of both hind paws) [14]: 0.255
- Oedema (difference in paw volume from basal values on day 21) in both hind paws [15]: 0.006
- Total hind paw volume (sum of both hind paws) [15]: 0.248
- Oedema (difference in paw volume from basal values on day 21) in both hind paws [16]: 0.031
- Total hind paw volume (sum of both hind paws) [16]: 0.273
- Oedema (difference in paw volume from basal values on day 21) in both hind paws [17]: 0.034
- Total hind paw volume (sum of both hind paws) [17]: 0.277
- Oedema (difference in paw volume from basal values on day 21) in both hind paws [18]: 0.039
- Total hind paw volume (sum of both hind paws) [18]: 0.281
- Oedema (difference in paw volume from basal values on day 21) in both hind paws [19]: 0.046
- Total hind paw volume (sum of both hind paws) [19]: 0.289
- Oedema (difference in paw volume from basal values on day 21) in both hind paws [20]: 0.046
- Total hind paw volume (sum of both hind paws) [20]: 0.288
- Oedema (difference in paw volume from basal values on day 21) in both hind paws [21]: 0.065
- Total hind paw volume (sum of both hind paws) [21]: 0.307
- Oedema (difference in paw volume from basal values on day 21) in both hind paws [22]: 0.062
- Total hind paw volume (sum of both hind paws) [22]: 0.304
- Oedema (difference in paw volume from basal values on day 21) in both hind paws [23]: 0.070
- Total hind paw volume (sum of both hind paws) [23]: 0.312
- Oedema (difference in paw volume from basal values on day 21) in both hind paws [24]: 0.063
- Total hind paw volume (sum of both hind paws) [24]: 0.31
- Oedema (difference in paw volume from basal values on day 21) in both hind paws [25]: 0.073
- Total hind paw volume (sum of both hind paws) [25]: 0.32
- Oedema (difference in paw volume from basal values on day 21) in both hind paws [26]: 0.072
- Total hind paw volume (sum of both hind paws) [26]: 0.31
- effect on hind paw oedema (in words) (test item 10 mg/kg BID, Indomethacin 1 mg/kg Q.D, oral): did not result in any significant inhibition
